Like-named read-outs stand apart in the source and are kept apart here.
System: MAO-B
Type: in vivo, Macaca fascicularis
Conditions: for 2-TC parameter estimate k2 / 2-TC parameter estimate k3 / 2-TC parameter estimate k4 / 2-TC parameter estimate K1 / 2-TC parameter estimate VT / VT, 2-TC mean / VT, Logan mean: baseline
Method: At start of PET data acquisition, a sterile physiological phosphate buffer solution (pH = 7.4) of [^18F]GEH200449 (injected radioactivity, 107–167 MBq) was injected as a bolus into a sural vein. Emission data were acquired in list mode for 123 min. Arterial blood was sampled as previously described[28] using an automated blood sampling system (ABSS) during the first 3 min of each PET measurement. Subsequently, arterial blood samples (0.7–2.5 mL) were manually drawn at 7, 15, 30, 60, 90, and 120 min after injection of [^18F]GEH200449. After centrifugation, 0.15–1.0 mL of plasma was pipetted and plasma radioactivity was measured in a well counter. In addition, samples were taken directly from the ABSS at 0.5, 1, 1.5, 2, 2.5, and 3 min for cross-calibration with the well counter and for the determination of the plasma-to-blood ratio.
Dynamic images were reconstructed as previously described.[30],[31] Regions of interest (ROIs) for the whole brain and selected regions (caudate nucleus, putamen, thalamus, occipital cortex, prefrontal cortex, and cerebellum) were manually delineated on T1-weighted magnetic resonance images (MRIs) acquired as previously described.[21],[27] PET images were coregistered to the MRIs, and time-activity curves were generated by pooling ROIs for each paired anatomical region and applying the pooled ROIs to the coregistered PET images. Delineation of ROIs and image coregistrations were performed using the software PMOD v. 3.6 (PMOD Technologies, Zurich, Switzerland).
Time curves for regional [^18F]GEH200449 binding at baseline were analyzed by kinetic modeling using 1-TC and 2-TC models,[32] and VT as outcome measures. Akaike information criterion[33] and F statistics were applied to select the preferred model. Regional estimates of VT for [^18F]GEH200449 were also obtained using the Logan linear graphical method[34] with t* fixed at 40 min. The analyses were performed using the kinetic modeling tool in PMOD v. 4.3. Occupancy at [^18F]GEH200449 binding sites was estimated based on regional VT values obtained by the Logan method at baseline and after drug administration according to a graphical procedure described in the literature.[22]

## O=c1ccoc2ccc(OCc3ccc([18F])nc3)cc12 [[^18F]GEH200449]
NHP #4, CER
  2-TC parameter estimate k2: 0.03 min⁻¹
  2-TC parameter estimate k3: 0.001 min⁻¹
  2-TC parameter estimate k4: 0.000 min⁻¹
NHP #4, OC
  2-TC parameter estimate K1: 0.31 mL min-1 cm-3
  2-TC parameter estimate k2: 0.03 min⁻¹
  2-TC parameter estimate k3: 0.001 min⁻¹
  2-TC parameter estimate k4: 0.000 min⁻¹
NHP #4, PFC
  2-TC parameter estimate K1: 0.37 mL min-1 cm-3
  2-TC parameter estimate VT: 13.9 mL cm-3
  2-TC parameter estimate k2: 0.03 min⁻¹
  2-TC parameter estimate k3: 0.002 min⁻¹
  2-TC parameter estimate k4: 0.013 min⁻¹
NHP #4, PUT
  2-TC parameter estimate K1: 0.57 mL min-1 cm-3
  2-TC parameter estimate VT: 17.2 mL cm-3
  2-TC parameter estimate k2: 0.04 min⁻¹
  2-TC parameter estimate k3: 0.006 min⁻¹
  2-TC parameter estimate k4: 0.034 min⁻¹
NHP #4, THA
  2-TC parameter estimate K1: 0.53 mL min-1 cm-3
  2-TC parameter estimate VT: 18.1 mL cm-3
  2-TC parameter estimate k2: 1.24 min⁻¹
  2-TC parameter estimate k3: 4.043 min⁻¹
  2-TC parameter estimate k4: 0.098 min⁻¹
NHP #4, WB
  2-TC parameter estimate K1: 0.34 mL min-1 cm-3
  2-TC parameter estimate VT: 13.1 mL cm-3
  2-TC parameter estimate k2: 0.03 min⁻¹
  2-TC parameter estimate k3: 0.003 min⁻¹
  2-TC parameter estimate k4: 0.016 min⁻¹
NHP #5, CAU
  2-TC parameter estimate K1: 0.93 mL min-1 cm-3
  2-TC parameter estimate VT: 34.1 mL cm-3
  2-TC parameter estimate k2: 0.05 min⁻¹
  2-TC parameter estimate k3: 0.004 min⁻¹
  2-TC parameter estimate k4: 0.004 min⁻¹
NHP #5, CER
  2-TC parameter estimate K1: 0.51 mL min-1 cm-3
  2-TC parameter estimate VT: 16.0 mL cm-3
  2-TC parameter estimate k2: 0.05 min⁻¹
  2-TC parameter estimate k3: 0.006 min⁻¹
  2-TC parameter estimate k4: 0.011 min⁻¹
NHP #5, OC
  2-TC parameter estimate K1: 0.37 mL min-1 cm-3
  2-TC parameter estimate k2: 0.04 min⁻¹
  2-TC parameter estimate k3: 0.002 min⁻¹
  2-TC parameter estimate k4: 0.000 min⁻¹
NHP #5, PFC
  2-TC parameter estimate K1: 0.61 mL min-1 cm-3
  2-TC parameter estimate VT: 20.4 mL cm-3
  2-TC parameter estimate k2: 0.05 min⁻¹
  2-TC parameter estimate k3: 0.004 min⁻¹
  2-TC parameter estimate k4: 0.006 min⁻¹
NHP #5, PUT
  2-TC parameter estimate K1: 0.86 mL min-1 cm-3
  2-TC parameter estimate VT: 21.1 mL cm-3
  2-TC parameter estimate k2: 0.06 min⁻¹
  2-TC parameter estimate k3: 0.007 min⁻¹
  2-TC parameter estimate k4: 0.012 min⁻¹
NHP #5, THA
  2-TC parameter estimate K1: 0.64 mL min-1 cm-3
  2-TC parameter estimate VT: 27.7 mL cm-3
  2-TC parameter estimate k2: 0.04 min⁻¹
  2-TC parameter estimate k3: 0.004 min⁻¹
  2-TC parameter estimate k4: 0.005 min⁻¹
NHP #5, WB
  2-TC parameter estimate K1: 0.50 mL min-1 cm-3
  2-TC parameter estimate VT: 17.3 mL cm-3
  2-TC parameter estimate k2: 0.05 min⁻¹
  2-TC parameter estimate k3: 0.005 min⁻¹
  2-TC parameter estimate k4: 0.008 min⁻¹
Baseline PET images and time curves
  pattern of regional radioactivity (binding): high binding in the striatum and thalamus, whereas the binding was lower in the cortex and cerebellum
Caudate nucleus, n = 4
  VT, 2-TC mean: 22.0 mL cm^–3
  VT, Logan mean: 18.9 mL cm^–3
cerebellum, n = 3
  VT, 2-TC mean: 13.6^** mL cm^–3
cerebellum, n = 4
  VT, Logan mean: 12.6 mL cm^–3
Occipital cortex, n = 2
  VT, 2-TC mean: 11.0^* mL cm^–3
Occipital cortex, n = 4
  VT, Logan mean: 11.0 mL cm^–3
Prefrontal cortex, n = 4
  VT, 2-TC mean: 14.7 mL cm^–3
  VT, Logan mean: 13.1 mL cm^–3
putamen, n = 4
  VT, 2-TC mean: 17.3 mL cm^–3
  VT, Logan mean: 16.5 mL cm^–3
thalamus, n = 4
  VT, 2-TC mean: 19.8 mL cm^–3
  VT, Logan mean: 17.3 mL cm^–3
Whole brain, n = 4
  VT, 2-TC mean: 13.5 mL cm^–3
  VT, Logan mean: 12.4 mL cm^–3
